In patent US5118882A, “Streptenols from streptomycetes, and the preparation and use thereof” (Hoechst Aktiengesellschaft, priority 1989, dated 1992) one finds IC50 data, which are given here for one compound.

The structures appear in SMILES notation.

In the assay the test system is HEP-G2 cells. Briefly: Inhibition of cholesterol biosynthesis (14C-acetate incorporation into cholesterol). Type of assay: cell-based. The following applies: Homo sapiens, HepG2; HEP-G2 monolayers, 1 h preincubation, 3 h with 14C-sodium acetate; read-out: IC50 value (concentration at which 50% of the cholesterol synthesis was inhibited). The protocol: 4. Inhibition of cholesterol biosynthesis
The biological effectiveness of the compound of the formula I was determined using cell cultures of cell line HEP-G2. For this purpose, monolayers of HEP-G2 cells were preincubated for one hour in a lipo-protein-free culture medium containing appropriate concentrations of the test substances; after the ^14 C-labeled precursor ^14 C-(sodium acetate) has been added, incubation is continued for three hours. After this, a portion of the cells are subjected to alkaline hydrolysis, an internal standard of ^3 H-cholesterol having been added previously. The lipids of the hydrolysed cells are extracted using chloroform/methanol. Support-cholesterol is added, and this lipid mixture is then separated by means of preparative thin-layer chromatography; the cholesterol band is made visible and then isolated, and the amount ^14 C-cholesterol which has been formed from the ^14 C-precursor is determined scintigraphically. […] In aliquots of the cell culture, the intactness of the cell culture and lack of damage to cells by the influence of preparations is assessed morphologically (in an optical microscope) and biochemically by determining the amount of lactate dehydrogenase in the incubation medium. […]

In the case of `CC[C@H](C)C(=O)O[C@H]1C[C@@H](C)C=C2C=C[C@H](C)[C@H](CC[C@@H]3C[C@@H](O)CC(=O)O3)[C@H]21` [lovastatin], the IC50 came to 20 nM.
